This is an account of results in patent US20250145619A1, “KHK INHIBITOR, PREPARATION METHOD THEREFOR AND USE THEREOF” (YOUNGENE THERAPEUTICS CO., LTD, priority 2022, published 2025).

The target of this assay is KHK—C (Homo sapiens (Human), UniProt P50053). Briefly: KHK—C ADP-Glo kinase inhibitory activity assay. The format is biochemical. The settings on record: 1 nM KHK—C, 200 μM D-Fructose, 100 μM ATP, ADP-Glo luminescence. The text has this: (KHK—C ADP-Glo Kinase Inhibitory Activity Assay)
Y=Bottom+(Top−Bottom)/(1+10^((LogIC50−X)×HillSlope)) • X: Log value of compound concentration • Y: Inhibition ratio (%)
[formula] • Negative control: DMSO
A general note: ADP-Glo first removes unused ATP, then detects ADP through luciferase.

Chain of KHK—C (P50053 whole entry): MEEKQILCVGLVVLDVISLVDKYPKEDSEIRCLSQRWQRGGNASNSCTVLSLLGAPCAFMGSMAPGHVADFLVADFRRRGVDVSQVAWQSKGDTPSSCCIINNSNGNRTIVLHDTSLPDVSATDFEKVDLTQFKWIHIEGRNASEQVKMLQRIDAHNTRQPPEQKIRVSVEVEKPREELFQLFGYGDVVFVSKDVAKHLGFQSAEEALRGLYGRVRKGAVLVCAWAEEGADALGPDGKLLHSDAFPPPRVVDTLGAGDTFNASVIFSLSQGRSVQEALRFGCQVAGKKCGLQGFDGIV

Usually IC50 stands for the midpoint of a concentration-inhibition curve. For `C[C@H]1CCN1c1nc(N2CC3(C2)CS(=O)(=O)C3)cc(C(F)(F)F)c1C#N` [Example 4, (S)-6-(2,2-dioxa-2-thioxa-6-azaspiro[3.3]heptan-6-yl)-2-(2-methylazetidine-1-yl)-4-(trifluoromethyl)nicotinonitrile], the midpoint of inhibition, the IC50, lay at 198 nM. That is a sub-micromolar value.

`C[C@H]1[C@H](O)CN1c1nc(N2CC3(CC(C(=O)O)C3)C2)c2c(n1)C(F)(F)CC2` [Example 31, 2-(7,7-difluoro-2-((2S,3R)-3-hydroxy-2-methylazetidine-1-yl)-6,7-dihydro-5H-cyclopentadiene[d]pyrimidin-4-yl)-2-azaspiro[3.3]heptan-6-carboxylic acid]: 134 nM corresponded to half-maximal inhibition (IC50). As for `C[C@H]1CCN1c1nc(N2CC3CN(CC(=O)O)CC3C2)c2c(n1)C(F)(F)CC2` (stereo partly drawn) [Example 35, 2-(5-(7,7-difluoro-2-((S)-2-methylazetidine-1-yl)-6,7-dihydro-5H-cyclopentadiene[c]pyrimidin-4-yl)hexahydropyrrolo[3,4-c]pyrrolo-2(1H)-yl)acetic acid], the IC50 is 142 nM. Compound `C[C@H]1CCN1c1nc(N2C[C@@H]3[C@@H](CC(=O)O)[C@@H]3C2)cc2nc(C#N)cnc12` [Example 46, 2-((1R,5S,6R)-3-(2-cyano-5-((S)-2-methylazetidine-1-yl)pyridino[3,4-b]pyrazin-7-yl)-3-azabicyclo[3.1.0]hexan-6-yl)acetic acid] registered an IC50 of 30.2 nM. Consider `C[C@H]1CCN1c1nc(N2CC3(CC(C(=O)O)C3)C2)cc(C(F)(F)F)c1C#N` [Example 1, (S)-2-(5-cyano-6-(2-methylazetidine-1-yl)-4-(trifluoromethyl)pyridin-2-yl)-2-azaspiro[3.3]heptan-6-carboxylic acid], for which the half-inhibitory concentration (IC50) was 27.9 nM. In the case of `CO[C@@H]1CN(c2nc(N3CC4(CC(C(=O)O)C4)C3)c3c(n2)C(F)(F)CC3)[C@H]1C` [Example 30, 2-(7,7-difluoro-2-((2S,3R)-3-methoxy-2-methylazetidine-1-yl)-6,7-dihydro-5H-cyclopentadiene[d]pyrimidin-4-yl)-2-azaspiro[3.3]heptan-6-carboxylic acid], the concentration for half-maximal inhibition (IC50) was greater than 10000 nM. As to `C[C@H]1CCN1c1nc(N2CC3(CCC(C(=O)O)CC3)C2)cc(C(F)(F)F)c1C#N` [Example 2, (S)-2-(5-cyano-6-(2-methylazetidine-1-yl)-4-(trifluoromethyl)pyridin-2-yl)-2-azaspiro[3.5]nonan-7-carboxylic acid], it took 143 nM to reach half-maximal inhibition (IC50). With `C[C@H]1CCN1c1nc(N2CC[C@H](CC(=O)O)C2)c2c(n1)C(F)(F)CC2` [Example 36, 2-((R)-1-(7,7-difluoro-2-((S)-2-methylazetidine-1-yl)-6,7-dihydro-5H-cyclopentadiene[d]pyrimidin-4-yl)pyrrolidin-3-yl)acetic acid] the figure was 13.6 nM.

The compound `CN[C@@H]1CN(c2nc(N3CC4(CC(C(=O)O)C4)C3)c3c(n2)C(F)(F)CC3)[C@H]1C` [Example 29, 2-(7,7-difluoro-2-((2S,3R)-2-methyl-3-(methylamino)azetidine-1-yl)-6,7-dihydro-5H-cyclopentadiene[d]pyrimidin-4-yl)-2-azaspiro[3.3]heptan-6-carboxylic acid] returned an IC50 greater than 10000 nM. In turn, `C[C@H]1CCN1c1nc(N2CCC(CC(=O)O)CC2)c2c(n1)C(F)(F)CC2` [Example 33, (S)-2-(1-(7,7-difluoro-2-(2-methylazetidine-1-yl)-6,7-dihydro-5H-cyclopentadiene[d]pyrimidin-4-yl)piperidin-4-yl)acetic acid] came in with an IC50 of 52.8 nM. Regarding `C[C@H]1CCN1c1nc(N2CC3(CN(CC(=O)O)C3)C2)cc(C(F)(F)F)c1C#N` [Example 15, (S)-2-(6-(5-cyano-6-(2-methylazetidine-1-yl)-4-(trifluoromethyl)pyridin-2-yl)-2,6-diazaspiro[3.3]heptan-2-yl)acetic acid], 212 nM corresponded to half-maximal inhibition (IC50). In turn, `C[C@H]1CCN1c1nc(N2CCC3(CC2)CC(C(=O)O)C3)cc(C(F)(F)F)c1C#N` [Example 3, (S)-7-(5-cyano-6-(2-methylazetidine-1-yl)-4-(trifluoromethyl)pyridin-2-yl)-7-azaspiro[3.5]nonan-2-carboxylic acid] gave an IC50 of 115 nM.

`C[C@H]1CCN1c1nc(N2C[C@@H]3[C@@H](CC(=O)O)[C@@H]3C2)cc(C(F)(F)F)c1C#N` [Example 8, 2-((1R,5S,6R)-3-(5-cyano-6-((S)-2-methylazetidine-1-yl)-4-(trifluoromethyl)pyridin-2-yl)-3-azabicyclo[3.1.0]hexan-6-yl)acetic acid]: the IC50 is 0.17 nM. Against the preceding compound, the IC50 is about 680-fold lower.

On to `C[C@H]1CCN1c1nc(N2CC3(CC(CC(=O)O)C3)C2)cc(C(F)(F)F)c1C#N` [Example 9, (S)-2-(2-(5-cyano-6-(2-methylazetidine-1-yl)-4-(trifluoromethyl)pyridin-2-yl)-2-azaspiro[3.3]heptan-6-yl)acetic acid], for which it took 27 nM to reach half-maximal inhibition (IC50). As for `C[C@H]1CCN1c1nc(N2CC3(CC(CC(=O)O)C3)C2)c2c(n1)C(F)(F)CC2` [Example 34, (S)-2-(2-(7,7-difluoro-2-(2-methylazetidine-1-yl)-6,7-dihydro-5H-cyclopentadiene[d]pyrimidin-4-yl)-2-azaspiro[3.3]heptan-6-yl)acetic acid], the concentration for half-maximal inhibition (IC50) was 40 nM. In turn, `C[C@H]1CCN1c1nc(N2CCC(CCC(=O)O)C2)cc(C(F)(F)F)c1C#N` (stereo partly drawn) [Example 11, 3-(1-(5-cyano-6-((S)-2-methylazetidine-1-yl)-4-(trifluoromethyl)pyridin-2-yl)pyrrolidin-3-yl)propionic acid] gave an IC50 of 12.6 nM. In turn, `C[C@H]1CCN1c1nc(N2CC3(CCC(C(=O)O)C3)C2)c2c(n1)C(F)(F)CC2` (stereo partly drawn) [Example 27, 2-(7,7-difluoro-2-((S)-2-methylazetidine-1-yl)-6,7-dihydro-5H-cyclopentadiene[d]pyrimidin-4-yl)-2-azaspiro[3.4]octan-6-carboxylic acid] registered a half-inhibitory concentration (IC50) of 59 nM.

Compound `CC(=O)N[C@@H]1CN(c2nc(N3CC4(CC(C(=O)O)C4)C3)c3c(n2)C(F)(F)CC3)[C@H]1C` [Example 28, 2-(2-((2S,3R)-3-acetamido-2-methylazetidine-1-yl)-7,7-difluoro-6,7-dihydro-5H-cyclopentadiene[d]pyrimidin-4-yl)-2-azaspiro[3.3]heptan-6-carboxylic acid] had an IC50 greater than 10000 nM.

For the compound `C[C@H]1CCN1c1nc(N2CC3(C2)CS(=O)(=O)C3)cc(C(F)(F)F)c1C(N)=O` [Example 17, (S)-6-(2,2-dioxa-2-thioxa-6-azaspiro[3.3]heptan-6-yl)-2-(2-methylazetidine-1-yl)-4-(trifluoromethyl)nicotinamide], the IC50 was greater than 10000 nM. `C[C@H]1CCN1c1nc(N2CCC3(CC(C(=O)O)C3)C2)c2c(n1)C(F)(F)CC2` (stereo partly drawn) [Example 26, (S)-6-(7,7-difluoro-2-(2-methylazetidine-1-yl)-6,7-dihydro-5H-cyclopentadiene[d]pyrimidin-4-yl)-6-azaspiro[3.4]octan-2-carboxylic acid] displayed a concentration for half-maximal inhibition (IC50) of 42.9 nM.

In turn, `CC(C(=O)O)[C@H]1[C@@H]2CN(c3cc(C(F)(F)F)c(C#N)c(N4CC[C@@H]4C)n3)C[C@@H]21` (stereo partly drawn) [Example 10, (R)-2-((1R,5S,6R)-3-(5-cyano-6-((S)-2-methylazetidine-1-yl)-4-(trifluoromethyl)pyridin-2-yl)-3-azabicyclo[3.1.0]hexan-6-yl)propionic acid] gave an IC50 of 12.6 nM. This IC50 is about 3.4-fold lower than that of the compound before. In turn, `C[C@H]1CCN1c1nc(N2CC3(CC(C(=O)O)C3)C2)c2c(n1)C(F)(F)CC2` [Example 24, (S)-2-(7,7-difluoro-2-(2-methylazetidine-1-yl)-6,7-dihydro-5H-cyclopentadiene[d]pyrimidin-4-yl)-2-azaspiro[3.3]heptan-6-carboxylic acid] yielded an IC50 of 78.3 nM. In the case of `C[C@H]1[C@H](O)CN1c1nc(N2CC3(CC(C(=O)O)C3)C2)cc(C(F)(F)F)c1C#N` [Example 5, 2-(5-cyano-6-((2S,3R)-3-hydroxy-2-methylazetidine-1-yl)-4-(trifluoromethyl)pyridin-2-yl)-2-azaspiro[3.3]heptan-6-carboxylic acid] it was 110 nM. As for `C[C@H]1CCN1c1nc(N2CC[C@H](CC(=O)O)C2)cc2nccnc12` [Example 41, 2-((R)-1-(5-((S)-2-methylazetidine-1-yl)pyridino[3,4-b]pyrazin-7-yl)pyrrolidin-3-yl)acetic acid], the half-inhibitory concentration (IC50) turned out to be 3940 nM.

As to `C[C@H](C(=O)O)[C@H]1[C@@H]2CN(c3cc(C(F)(F)F)c(C#N)c(N4CC[C@@H]4C)n3)C[C@@H]21` [Example 19, (S)-2-((1R,5S,6R)-3-(5-cyano-6-((S)-2-methylazetidine-1-yl)-4-(trifluoromethyl)pyridin-2-yl)-3-azabicyclo[3.1.0]hexan-6-yl)propionic acid], the IC50 was found to be 24.7 nM. `C[C@H]1CCN1c1nc(N2CC3(CCC(C(=O)O)C3)C2)cc(C(F)(F)F)c1C#N` (stereo partly drawn) [Example 7, 2-(5-cyano-6-((S)-2-methylazetidine-1-yl)-4-(trifluoromethyl)pyridin-2-yl)-2-azaspiro[3.4]octan-6-carboxylic acid] registered a half-inhibitory concentration (IC50) of 36 nM. With `C[C@H]1CCN1c1nc(N2CCC3(CC(C(=O)O)C3)C2)cc(C(F)(F)F)c1C(N)=O` (stereo partly drawn) [Example 16, (S)-6-(5-aminoformyl-6-(2-methylazetidine-1-yl)-4-(trifluoromethyl)pyridin-2-yl)-6-azaspiro[3.4]octan-2-carboxylic acid] the figure was 6300 nM; with `C[C@@H](C(=O)O)[C@H]1[C@@H]2CN(c3cc(C(F)(F)F)c(C#N)c(N4CC[C@@H]4C)n3)C[C@@H]21` [Example 18, (R)-2-((1R,5S,6R)-3-(5-cyano-6-((S)-2-methylazetidine-1-yl)-4-(trifluoromethyl)pyridin-2-yl)-3-azabicyclo[3.1.0]hexan-6-yl)propionic acid], 100 nM. In the case of `C[C@H]1CCN1c1nc(N2CC(CC(=O)O)C2)c2c(n1)C(F)(F)CC2` [Example 25, (S)-2-(1-(7,7-difluoro-2-(2-methylazetidine-1-yl)-6,7-dihydro-5H-cyclopentadiene[d]pyrimidin-4-yl)azetidine-3-yl)acetic acid] it was 47 nM.
